Measurements published in the supplement of paper PMC4858399.
Where a name gives a salt, the structure may show the parent alone.

What was measured:
[1] = test system: Caenorhabditis elegans N2; test: mean nematode size ln(EXT) after 48 h, plate-adjusted (DMSO control set to 6) (ln(EXT), control-adjusted); higher = larger nematodes / less growth inhibition; settings: exposure time 48 h
Outline: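 Synchronised C. elegans N2 L1 larvae were grown for 48 h at 20°C in K-medium containing killed OP50, 1% DMSO and 0.5–200 µM chemical, at 50 per well and 4–6 wells per treatment. The Biosort recorded extinction for each worm, and a growth model removed debris. Worm size was obtained by natural-logging these values and averaging them per well. For plate adjustment, the vehicle control mean was subtracted and 6 was added.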

[2] = test system: Caenorhabditis elegans N2; test: lowest effective concentration for larval growth inhibition (size below effect threshold); higher = less potent; settings: exposure time 48 h
Outline: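 Log-transformed well means of per-worm extinction, read as size on a Biosort, came from 50 C. elegans N2 L1 larvae per 96-well grown 48 h at 20°C in K-medium with killed bacteria, 1% DMSO and 0.5 to 200 µM chemical. The lowest effective concentration is the first dose at which the plate-adjusted mean size is below the threshold and stays below it at every higher dose. The threshold is 5.665.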

| Compound | mean nematode size ln(EXT) (ln) ([1]; 0.5 µM) | mean nematode size ln(EXT) (ln) ([1]; 1 µM) | mean nematode size ln(EXT) (ln) ([1]; 5 µM) | mean nematode size ln(EXT) (ln) ([1]; 10 µM) | mean nematode size ln(EXT) (ln) ([1]; 50 µM) | mean nematode size ln(EXT) (ln) ([1]; 100 µM) | mean nematode size ln(EXT) (ln) ([1]; 200 µM) | lowest effective concentration [2] [µM] |
| --- | --- | --- | --- | --- | --- | --- | --- | --- |
| Cc1nc(-c2ccccn2)ncc1C(=O)Nn1cc(C)c2cc(F)ccc21 | 5.82 | 5.84 | 5.9 | 5.83 | 5.73 | 5.77 | 5.86 | > 200 |
| C1CNCCN1 [Piperazine] | 5.84 | 5.81 | 5.85 | 5.84 | 5.89 | 5.84 | 5.74 | > 200 |
| CCCCOCCOCCO [2-(2-Butoxyethoxy)ethanol] | 5.78 | 6 | 6.21 | 5.86 | 5.95 | 5.74 | 5.96 | > 200 |
| C=CN1CCCC1=O [N-Vinyl-2-pyrrolidone] | 6.07 | 5.85 | 5.84 | 5.87 | 5.89 | 4.87 | 5.82 | > 200 |
| Oc1ccc2ccccc2c1N=Nc1ccccc1 [Sudan I] | 5.91 | 5.88 | 5.87 | 5.83 | 5.7 | 5.77 | 5.68 | > 200 |
| CC(O)CN(CCN(CC(C)O)CC(C)O)CC(C)O (stereo not drawn) [N,N,N',N'-Tetrakis(2-Hydroxypropyl)ethylenediamine] | 5.67 | 5.6 | 5.71 | 5.67 | 5.01 | 5.4 | 5.66 | 50 |
| O=C(O)COc1ccc(Cl)cc1Cl [2,4-Dichlorophenoxyacetic acid (2,4-D)] | 5.91 | 5.88 | 5.96 | 5.97 | 5.83 | 6.02 | 5.89 | > 200 |
| COc1cc(OC)nc(Sc2cccc(Cl)c2C(=O)O)n1 [Pyrithiobac-sodium] | 5.98 | 6 | 6.11 | 6.18 | 6.06 | 6.1 | 5.69 | > 200 |
| CCc1cccc(CC)c1N [2,6-Diethylaniline] | 5.78 | 5.83 | 5.81 | 5.8 | 5.82 | 5.84 | 5.68 | > 200 |
| CC[C@H]1OC(=O)[C@H](C)[C@@H](O[C@H]2C[C@@](C)(OC)[C@@H](O)[C@H](C)O2)[C@H](C)[C@@H](O[C@@H]2O[C@H](C)C[C@H](N(C)C)[C@H]2O)[C@](C)(O)C[C@@H](C)C(=O)[C@H](C)[C@@H](O)[C@]1(C)O [Erythromycin] | 5.95 | 5.89 | 5.94 | 5.9 | 5.86 | 5.92 | 5.84 | > 200 |
| CCCCCCC(=O)OCC [Heptanoic acid, ethyl ester] | 5.88 | 5.93 | 5.82 | 6.08 | 5.85 | 5.89 | 6.02 | > 200 |
| O=S(=O)(O)C(F)(F)C(F)(F)C(F)(F)C(F)(F)F [Potassium nonafluoro-1-butanesulfonate] | 5.49 | 5.58 | 5.55 | 5.7 | 5.7 | 5.65 | 5.81 | > 200 |
| CCC(C)n1c(=O)[nH]c(C)c(Br)c1=O (stereo not drawn) [Bromacil] | 6.06 | 6.23 | 6.18 | 6.3 | 6.1 | 6.23 | 5.81 | > 200 |
| CN(C)C(=O)NC1(c2ccccc2)CCN(CCCC2(c3ccc(Cl)c(Cl)c3)CCCN(C(=O)c3ccccc3)C2)CC1 (stereo in doubt) | 5.96 | 5.67 | 5.69 | 5.74 | 5.62 | 5.35 | 5.63 | 50 |
| C=CCOC(=O)C(C)(C)OC(=O)c1cc(-n2c(=O)cc(C(F)(F)F)n(C)c2=O)ccc1Cl [Butafenacil] | 5.9 | 5.89 | 5.87 | 5.88 | 5.84 | 5.92 | 5.94 | > 200 |
| COP(=O)(OC)O/C(C)=C/C(=O)N(C)C [Dicrotophos] | 6.11 | 6.42 | 6.04 | 6.07 | 6.05 | 6.05 | 5.85 | > 200 |
| CCc1ccc(CCOc2ccc(CC3SC(=O)NC3=O)cc2)nc1 (stereo not drawn) [Pioglitazone HCl] | 5.98 | 5.94 | 5.95 | 5.96 | 5.91 | 5.87 | 5.76 | > 200 |
| CCCCC(CC)COC(=O)c1ccccc1C(=O)OCC(CC)CCCC (stereo not drawn) [Diethylhexyl phthalate] | 5.9 | 5.91 | 5.76 | 5.85 | 5.67 | 6.02 | 5.76 | > 200 |
| C/C=C\c1ccc(O)c(OC)c1 [Isoeugenol] | 5.87 | 5.92 | 5.95 | 6.01 | 5.87 | 5.85 | 5.88 | > 200 |
| NC1CCCCC1 [Cyclohexylamine] | 5.84 | 5.95 | 5.82 | 5.85 | 5.98 | 5.83 | 5.86 | > 200 |
| CN(C)C(=O)Cl [Dimethylcarbamoyl chloride] | 5.77 | 5.81 | 5.82 | 5.71 | 5.84 | 5.9 | 5.73 | > 200 |
| Cn1cnc2c1c(=O)[nH]c(=O)n2C [Theobromine] | 5.83 | 5.87 | 5.98 | 6.03 | 5.87 | 5.86 | 5.83 | > 200 |
| CCNc1nc(Cl)nc(NC(C)C)n1 [Atrazine] | 5.54 | 5.72 | 5.73 | 5.07 | 6.06 | 6.06 | 5.94 | > 200 |
| CCOC(=O)CC(O)(CC(=O)OCC)C(=O)OCC [Triethyl citrate] | 6.01 | 5.99 | 6.04 | 6.03 | 6.03 | 6.08 | 5.71 | > 200 |
| CC(C)CCCCCCOC(=O)c1ccc(C(=O)OCCCCCCC(C)C)c(C(=O)OCCCCCCC(C)C)c1 [Triisononyl Trimellitate] | 5.94 | 5.89 | 5.94 | 5.86 | 5.81 | 5.73 | 5.68 | > 200 |
| CCCCCCOCCO [Ethylene glycol monohexyl ether] | 5.81 | 6.03 | 5.9 | 5.93 | 5.72 | 5.89 | 5.77 | > 200 |
